# Experimental data published in PubChem BioAssay AID298 (DTP/NCI, 2004).
# Values joined by “and” are separate entries in the source; they are usually repeats but may differ in a detail not shown here. Equal entries are not always repeated. Inconclusive results are not listed.
# Test system: MX-1 breast xenograft, intrarenal, nude mice, tumor weight
# Assay: NCI In Vivo Anticancer Drug Screen. Data for tumor model Human Mammary Carcinoma MX-1 Xenograft (intrarenal inoculation) in NU/NU BALB/C (nude) mice
# Details: endpoint: mean tumor weight change, higher = larger tumour
# Summary of the method: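 Mice w/ transplanted tumors, drug vs vehicle; endpoint survival or tumor size; value = T/C.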
# [1] = dose: 25.0 mg/kg/injection, schedule: Q04DX003 (ip), vehicle: saline with Tween-80
# [2] = dose: 50.0 mg/kg/injection, schedule: Q04DX003 (ip), vehicle: saline with Tween-80
# [3] = dose: 150.0 mg/kg/injection, schedule: Q04DX003 (ip), vehicle: saline with Tween-80
smiles,measurement,setting,value
O=C(O)c1ccc(C(=O)O)c(C(=O)O)c1.[NH-]C1CCCCC1[NH-].[Pt+2],T/C,"dose: 3.12 mg/kg/injection, schedule: Q01DX010 (sc), vehicle: sodium bicarbonate",74 % of control
same,T/C,"dose: 6.25 mg/kg/injection, schedule: Q01DX010 (sc), vehicle: sodium bicarbonate",40 % of control
same,T/C,"dose: 12.5 mg/kg/injection, schedule: Q01DX010 (sc), vehicle: sodium bicarbonate",6 % of control
CC(=O)C[n+]1ccccc1Sc1ccc(Cl)cc1,T/C,[1],66 % of control
same,T/C,[2],64 % of control
same,T/C,"dose: 100.0 mg/kg/injection, schedule: Q04DX003 (ip), vehicle: saline with Tween-80",89 % of control
CCOC(=O)Nc1cc2c(c(N)n1)N=C(c1ccccc1)CO2,T/C,[3],73 % of control
same,T/C,"dose: 300.0 mg/kg/injection, schedule: Q04DX003 (ip), vehicle: saline with Tween-80",80 % of control
same,T/C,"dose: 600.0 mg/kg/injection, schedule: Q04DX003 (ip), vehicle: saline with Tween-80",51 % of control
same,T/C,"dose: 1200.0 mg/kg/injection, schedule: Q04DX003 (ip), vehicle: saline with Tween-80",68 % of control
O=C1C2CC(Cl)C(SSC3CC4C(=O)N(SC(Cl)(Cl)C(Cl)Cl)C(=O)C4CC3Cl)CC2C(=O)N1SC(Cl)(Cl)C(Cl)Cl (stereo not drawn),T/C,"dose: 75.0 mg/kg/injection, schedule: Q04DX003 (ip), vehicle: saline with Tween-80",88 % of control
same,T/C,[3],45 % of control
CC[C@](C)(O)C(=O)O[C@H]1C(=O)O[C@@H]2C[C@H]3C(C)=CC(=O)[C@@H](O)[C@]3(C)[C@H]3[C@@]4(O)OC[C@]32[C@@H]1[C@@H](C)[C@H]4O,T/C,"dose: 0.25 mg/kg/injection, schedule: Q01DX010 (sc), vehicle: Klucel (hydroxypropylcellulose) (HPC)",23 % of control
same,T/C,"dose: 0.5 mg/kg/injection, schedule: Q01DX010 (sc), vehicle: Klucel (hydroxypropylcellulose) (HPC)",2 % of control
NNC(=S)N/N=C/c1ccccn1,T/C,"dose: 15.0 mg/kg/injection, schedule: Q04DX003 (sc), vehicle: saline with Tween-80",116 % of control
same,T/C,"dose: 30.0 mg/kg/injection, schedule: Q04DX003 (sc), vehicle: saline with Tween-80",96 % of control
same,T/C,"dose: 60.0 mg/kg/injection, schedule: Q04DX003 (sc), vehicle: saline with Tween-80",123 % of control
C=CCCC(=O)CCCC(=O)O[C@@H]1[C@@H]2[C@H](CC1(C)C)[C@H](O)[C@@]13O[C@@H]1[C@H](O)[C@@]1(CO1)[C@@]23C,T/C,"dose: 0.4 mg/kg/injection, schedule: Q04DX003 (ip), vehicle: Klucel (hydroxypropylcellulose) (HPC)",79 % of control
same,T/C,"dose: 0.8 mg/kg/injection, schedule: Q04DX003 (ip), vehicle: Klucel (hydroxypropylcellulose) (HPC)",82 % of control
same,T/C,"dose: 1.6 mg/kg/injection, schedule: Q04DX003 (ip), vehicle: Klucel (hydroxypropylcellulose) (HPC)",92 % of control
same,T/C,"dose: 3.2 mg/kg/injection, schedule: Q04DX003 (ip), vehicle: Klucel (hydroxypropylcellulose) (HPC)",81 % of control
same,T/C,"dose: 100.0 micrograms/kg/injection, schedule: Q04DX003 (ip), vehicle: Klucel (hydroxypropylcellulose) (HPC)",120 % of control
same,T/C,"dose: 200.0 micrograms/kg/injection, schedule: Q04DX003 (ip), vehicle: Klucel (hydroxypropylcellulose) (HPC)",97 % of control
same,T/C,"dose: 400.0 micrograms/kg/injection, schedule: Q04DX003 (ip), vehicle: Klucel (hydroxypropylcellulose) (HPC)",89 % of control
same,T/C,"dose: 800.0 micrograms/kg/injection, schedule: Q04DX003 (ip), vehicle: Klucel (hydroxypropylcellulose) (HPC)",121 % of control
O=c1n(CC2CO2)c(=O)n(CC2CO2)n1CC1CO1 (stereo not drawn),T/C,"dose: 9.38 mg/kg/injection, schedule: Q04DX003 (sc), vehicle: suspension in saline",46 % of control
same,T/C,"dose: 18.75 mg/kg/injection, schedule: Q04DX003 (sc), vehicle: suspension in saline",20 % of control
same,T/C,"dose: 37.5 mg/kg/injection, schedule: Q04DX003 (sc), vehicle: suspension in saline",12 % of control
C/C(=N\NC(=S)N1CC2CCC(CC2)C1)c1cccc(C)n1,T/C,"dose: 12.5 mg/kg/injection, schedule: Q04DX003 (ip), vehicle: saline with Tween-80",77 % of control
same,T/C,[1],62 % of control
same,T/C,[2],78 % of control
CC(=O)OCN(C)C=O,T/C,"dose: 300.0 mg/kg/injection, schedule: Q01DX010 (ip), vehicle: suspension in saline",105 % of control
same,T/C,"dose: 600.0 mg/kg/injection, schedule: Q01DX010 (ip), vehicle: suspension in saline",75 % of control
same,T/C,"dose: 600.0 mg/kg/injection, schedule: Q01DX010 (sc), vehicle: saline",88 % of control
same,T/C,"dose: 1200.0 mg/kg/injection, schedule: Q01DX010 (sc), vehicle: saline",104 % of control
same,T/C,"dose: 2400.0 mg/kg/injection, schedule: Q01DX010 (sc), vehicle: saline",78 % of control
CC(=O)O[C@H]1C(=O)[C@@]2(C)[C@H]([C@H](OC(=O)c3ccccc3)[C@]3(O)C[C@H](OC(=O)[C@H](O)[C@@H](NC(=O)c4ccccc4)c4ccccc4)C(C)=C1C3(C)C)[C@]1(OC(C)=O)CO[C@@H]1C[C@@H]2O,T/C,"dose: 1.88 mg/kg/injection, schedule: Q01DX009 (ip), vehicle: Klucel (hydroxypropylcellulose) (HPC)",5 % of control and 16 % of control
same,T/C,"dose: 2.5 mg/kg/injection, schedule: Q01DX009 (ip), vehicle: Klucel (hydroxypropylcellulose) (HPC)",12 % of control
same,T/C,"dose: 3.75 mg/kg/injection, schedule: Q01DX009 (ip), vehicle: Klucel (hydroxypropylcellulose) (HPC)",-80 % of control and -100 % of control
same,T/C,"dose: 4.45 mg/kg/injection, schedule: Q01DX009 (ip), vehicle: Klucel (hydroxypropylcellulose) (HPC)",-100 % of control
same,T/C,"dose: 5.0 mg/kg/injection, schedule: Q01DX009 (ip), vehicle: Klucel (hydroxypropylcellulose) (HPC)",-61 % of control
same,T/C,"dose: 6.67 mg/kg/injection, schedule: Q01DX009 (ip), vehicle: Klucel (hydroxypropylcellulose) (HPC)",-100 % of control
same,T/C,"dose: 7.5 mg/kg/injection, schedule: Q01DX009 (ip), vehicle: Klucel (hydroxypropylcellulose) (HPC)",-100 % of control
same,T/C,"dose: 10.0 mg/kg/injection, schedule: Q01DX009 (ip), vehicle: Klucel (hydroxypropylcellulose) (HPC)",-84 % of control and -100 % of control
same,T/C,"dose: 15.0 mg/kg/injection, schedule: Q01DX009 (ip), vehicle: Klucel (hydroxypropylcellulose) (HPC)",-100 % of control
C#CCNC1=C(C)C(=O)C2=C(C1=O)[C@H](COC(N)=O)[C@]1(OC)[C@@H]3N[C@@H]3CN21,T/C,"dose: 1.85 mg/kg/injection, schedule: Q04DX003 (ip), vehicle: distilled water + Tween-80",48 % of control
same,T/C,"dose: 1.88 mg/kg/injection, schedule: Q04DX003 (ip), vehicle: distilled water + Tween-80",97 % of control
same,T/C,"dose: 3.75 mg/kg/injection, schedule: Q04DX003 (ip), vehicle: distilled water + Tween-80",49 % of control and 55 % of control
COc1c(C=O)c2c(c(OC)c1OC)-c1ccc(OC)c(=O)cc1[C@@H](NC(C)=O)CC2,T/C,"dose: 9.37 mg/kg/injection, schedule: Q04DX003 (sc), vehicle: Klucel (hydroxypropylcellulose) (HPC)",62 % of control
same,T/C,"dose: 18.75 mg/kg/injection, schedule: Q04DX003 (sc), vehicle: Klucel (hydroxypropylcellulose) (HPC)",40 % of control
same,T/C,"dose: 37.5 mg/kg/injection, schedule: Q04DX003 (sc), vehicle: Klucel (hydroxypropylcellulose) (HPC)",13 % of control
CCOC(=O)c1ccc(NN=NCCF)cc1,T/C,"dose: 150.0 mg/kg/injection, schedule: Q04DX003 (ip), vehicle: distilled water + Tween-80 + alcohol",99 % of control
same,T/C,"dose: 300.0 mg/kg/injection, schedule: Q04DX003 (ip), vehicle: distilled water + Tween-80 + alcohol",89 % of control
same,T/C,"dose: 600.0 mg/kg/injection, schedule: Q04DX003 (ip), vehicle: distilled water + Tween-80 + alcohol",84 % of control
same,T/C,"dose: 1200.0 mg/kg/injection, schedule: Q04DX003 (ip), vehicle: distilled water + Tween-80 + alcohol",49 % of control
COc1ccc(Cl)[n+]([O-])n1,T/C,"dose: 25.0 mg/kg/injection, schedule: Q04DX003 (sc), vehicle: Klucel (hydroxypropylcellulose) (HPC)",119 % of control
same,T/C,"dose: 50.0 mg/kg/injection, schedule: Q04DX003 (sc), vehicle: Klucel (hydroxypropylcellulose) (HPC)",111 % of control
same,T/C,"dose: 100.0 mg/kg/injection, schedule: Q04DX003 (sc), vehicle: Klucel (hydroxypropylcellulose) (HPC)",106 % of control
CNC=O,T/C,"dose: 100.0 mg/kg/injection, schedule: Q01DX010 (sc), vehicle: saline",47 % of control
same,T/C,"dose: 200.0 mg/kg/injection, schedule: Q01DX010 (sc), vehicle: saline",10 % of control
CC1=C(C(N)=O)C(c2ccccc2)NC(=S)N1 (stereo not drawn),T/C,"dose: 150.0 mg/kg/injection, schedule: Q04DX003 (ip), vehicle: Klucel (hydroxypropylcellulose) (HPC)",87 % of control
CNc1n[n+](-c2ccccc2)no1,T/C,"dose: 18.25 mg/kg/injection, schedule: Q04DX003 (sc), vehicle: water",88 % of control
same,T/C,"dose: 37.5 mg/kg/injection, schedule: Q04DX003 (sc), vehicle: water",81 % of control
same,T/C,"dose: 75.0 mg/kg/injection, schedule: Q04DX003 (sc), vehicle: water",91 % of control
O=C(CCCCCCC(=O)ON1C(=O)CCC1=O)ON1C(=O)CCC1=O,T/C,"dose: 300.0 mg/kg/injection, schedule: Q04DX003 (sc), vehicle: saline with Tween-80",110 % of control
same,T/C,"dose: 600.0 mg/kg/injection, schedule: Q04DX003 (sc), vehicle: saline with Tween-80",96 % of control
same,T/C,"dose: 1200.0 mg/kg/injection, schedule: Q04DX003 (sc), vehicle: saline with Tween-80",81 % of control
same,T/C,"dose: 2400.0 mg/kg/injection, schedule: Q04DX003 (sc), vehicle: saline with Tween-80",85 % of control
